Values quoted from earlier work as cited in patent publication US9809617B2, “Crystal form of regadenoson and preparation method thereof” (Shanghai Ziyuan Pharmaceutical Co., Ltd., priority 2015, dated 2017).

Conditions: heat / humidity, as described for U.S. Pat. No. 7,732,595

SMILES | stability of crystal form (in words)
CCNC(=O)c1cnn(-c2nc(N)c3ncn(C4O[C@H](CO)[C@@H](O)[C@H]4O)c3n2)c1 (stereo partly drawn) [amorphous form of regadenoson] | unstable in atmospheric moisture
CCNC(=O)c1cnn(-c2nc(N)c3ncn(C4O[C@H](CO)[C@@H](O)[C@H]4O)c3n2)c1 (stereo partly drawn) [crystal form C] | unstable after losing crystal water under a high temperature
CCNC(=O)c1cnn(-c2nc(N)c3ncn(C4O[C@H](CO)[C@@H](O)[C@H]4O)c3n2)c1 (stereo partly drawn) [Crystal form A] | stable under heating under relative humidity stress conditions up to its melting point
